Data from ChEMBL document CHEMBL1255346 (2008).
Converted amounts (≈) assume the structure as drawn.

Tests used:
Klebsiella pneumoniae [1] = assay: Antibacterial activity against beta-lactamase KPC-2 producing Klebsiella pneumoniae isolate K1 to K9 by agar dilution method; format: functional
Serratia marcescens [2] = assay: Antibacterial activity against beta-lactamase KPC-2 producing Serratia marcescens isolate S1 to S21 by agar dilution method
Klebsiella pneumoniae [3] = assay: Antibacterial activity against beta-lactamase KPC-2 producing Klebsiella pneumoniae isolate K10 by agar dilution method; format: functional
Escherichia coli [4] = assay: Antibacterial activity against Escherichia coli EC600 by agar dilution method; format: functional
Escherichia coli [5] = assay: Antibacterial activity against Escherichia coli EC600 transconjugant harboring beta-lactamase KPC-2 by agar dilution method; format: functional
Escherichia coli [6] = assay: microbe, parasite or virus in culture; conditions: isolate E1
Description: (§1) Antibacterial activity against beta-lactamase KPC-2 producing Escherichia coli isolate E1 by agar dilution method

Serratia marcescens [7] = assay: Antibacterial activity against beta-lactamase KPC-2 producing Serratia marcescens isolate S1 to S21 in presence of Sulbactam by agar dilution method; format: functional
Klebsiella pneumoniae [8] = assay: Antibacterial activity against beta-lactamase KPC-2 producing Klebsiella pneumoniae isolate K1 to K9 in presence of Sulbactam by agar dilution method; format: functional
Klebsiella pneumoniae [9] = assay: Antibacterial activity against beta-lactamase KPC-2 producing Klebsiella pneumoniae isolate K10 in presence of Sulbactam by agar dilution method; format: functional
Escherichia coli [10] = assay: Antibacterial activity against Escherichia coli EC600 in presence of Sulbactam by agar dilution method; format: functional
Escherichia coli [11] = assay: Antibacterial activity against Escherichia coli EC600 transconjugant harboring beta-lactamase KPC-2 in presence of Sulbactam by agar dilution method
Escherichia coli [12] = assay: microbe, parasite or virus in culture; conditions: isolate E1; remark: listed apart in the source
Description: Antibacterial activity against beta-lactamase KPC-2 producing Escherichia coli isolate E1 in presence of Sulbactam by agar dilution method

Serratia marcescens [13] = assay: Antibacterial activity against beta-lactamase KPC-2 producing Serratia marcescens isolate S1 to S21 in presence of Tazobactam by agar dilution method; format: functional
Klebsiella pneumoniae [14] = assay: Antibacterial activity against beta-lactamase KPC-2 producing Klebsiella pneumoniae isolate K1 to K9 in presence of Tazobactam by agar dilution method; format: functional
Klebsiella pneumoniae [15] = assay: Antibacterial activity against beta-lactamase KPC-2 producing Klebsiella pneumoniae isolate K10 in presence of Tazobactam by agar dilution method; format: functional
Escherichia coli [16] = assay: Antibacterial activity against beta-lactamase KPC-2 producing Escherichia coli isolate E1 in presence of Tazobactam by agar dilution method; format: functional
Escherichia coli [17] = assay: Antibacterial activity against Escherichia coli EC600 in presence of Tazobactam by agar dilution method; format: functional
Escherichia coli [18] = assay: Antibacterial activity against Escherichia coli EC600 transconjugant harboring beta-lactamase KPC-2 in presence of Tazobactam by agar dilution method; format: functional
Escherichia coli [19] = conditions: isolate E1
Description: as §1

Row | Compound | MIC (Klebsiella pneumoniae [1]) [µg/mL] | MIC (Serratia marcescens [2]) [µg/mL] | MIC (Klebsiella pneumoniae [3]) [µg/mL] | MIC (Escherichia coli [4]) [µg/mL] | MIC (Escherichia coli [5]) [µg/mL] | MIC (Escherichia coli [6]) [µg/mL] | also measured
1 | C[C@@H](O)[C@H]1C(=O)N2C(C(=O)O)=C(S[C@@H]3CN[C@H](C(=O)Nc4cccc(C(=O)O)c4)C3)[C@H](C)[C@H]12 | 8 (≈ 16.8 µM) | 4 (≈ 8.41 µM) | > 256 | ≤ 0.125 | 4 (≈ 8.41 µM) | 8 (≈ 16.8 µM) | –
2 | CO/N=C(\C(=O)N[C@@H]1C(=O)N2C(C(=O)[O-])=C(C[N+]3(C)CCCC3)CS[C@H]12)c1csc(N)n1 | – | 8 (≈ 16.6 µM) | 256 (≈ 533 µM) | ≤ 0.125 | 8 (≈ 16.6 µM) | 64 (≈ 133 µM) | –
3 | CC1(C)S[C@@H]2[C@H](NC(=O)[C@H](N)c3ccccc3)C(=O)N2[C@H]1C(=O)O [AMPICILLIN] | > 256 | > 256 | > 256 | 8 (≈ 22.9 µM) | > 256 | > 256 | –
4 | C[C@H]1[C@H](NC(=O)/C(=N\OC(C)(C)C(=O)O)c2csc(N)n2)C(=O)N1S(=O)(=O)O [AZTREONAM] | 256 (≈ 588 µM) | 128 (≈ 294 µM) | > 256 | ≤ 0.125 | 128 (≈ 294 µM) | 256 (≈ 588 µM) | –
5 | CCN1CCN(C(=O)N[C@@H](C(=O)N[C@@H]2C(=O)N3C(C(=O)O)=C(CSc4nnnn4C)CS[C@H]23)c2ccc(O)cc2)C(=O)C1=O [CEFOPERAZONE] | – | – | – | – | – | – | MIC (Serratia marcescens [7]): 32 µg/mL; MIC (Klebsiella pneumoniae [8]): 128 µg/mL; MIC (Klebsiella pneumoniae [9]): > 256 µg/mL; MIC (Escherichia coli [10]): ≤ 0.125 µg/mL; MIC (Escherichia coli [11]): 32 µg/mL; MIC (Escherichia coli [12]): 128 µg/mL (≈ 198 µM)
6 | CO/N=C(\C(=O)N[C@@H]1C(=O)N2C(C(=O)O)=C(COC(C)=O)CS[C@H]12)c1csc(N)n1 [CEFOTAXIME] | 128 (≈ 281 µM) | 16 (≈ 35.1 µM) | 256 (≈ 562 µM) | ≤ 0.125 | 8 (≈ 17.6 µM) | 256 (≈ 562 µM) | –
7 | CO[C@@]1(NC(=O)Cc2cccs2)C(=O)N2C(C(=O)O)=C(COC(N)=O)CS[C@@H]21 [CEFOXITIN] | 8 (≈ 18.7 µM) | 16 (≈ 37.4 µM) | 256 (≈ 599 µM) | 8 (≈ 18.7 µM) | 16 (≈ 37.4 µM) | 32 (≈ 74.9 µM) | –
8 | CC(C)(O/N=C(\C(=O)N[C@@H]1C(=O)N2C(C(=O)[O-])=C(C[n+]3ccccc3)CS[C@H]12)c1csc(N)n1)C(=O)O [CEFTAZIDIME] | 64 (≈ 117 µM) | 8 (≈ 14.6 µM) | 256 (≈ 468 µM) | 0.25 (≈ 0.457 µM) | 16 (≈ 29.3 µM) | 64 (≈ 117 µM) | –
9 | CO/N=C(\C(=O)N[C@@H]1C(=O)N2C(C(=O)O)=C(CSc3nc(=O)c(O)nn3C)CS[C@H]12)c1csc(N)n1 [CEFTRIAXONE] | 256 (≈ 462 µM) | 32 (≈ 57.7 µM) | > 256 | ≤ 0.125 | 32 (≈ 57.7 µM) | > 256 | –
10 | O=C(O)c1cn(C2CC2)c2cc(N3CCNCC3)c(F)cc2c1=O [CIPROFLOXACIN] | – | – | – | – | – | > 32 | –
11 | C[C@@H](O)[C@H]1C(=O)N2C(C(=O)O)=C(SCCNC=N)C[C@H]12 [IMIPENEM ANHYDROUS] | 2 (≈ 6.68 µM) | 4 (≈ 13.4 µM) | 128 (≈ 428 µM) | ≤ 0.125 | 1 (≈ 3.34 µM) | 2 (≈ 6.68 µM) | –
12 | C[C@@H](O)[C@H]1C(=O)N2C(C(=O)O)=C(S[C@@H]3CN[C@H](C(=O)N(C)C)C3)[C@H](C)[C@H]12 [MEROPENEM] | – | 2 (≈ 5.22 µM) | 256 (≈ 668 µM) | ≤ 0.125 | 2 (≈ 5.22 µM) | 2 (≈ 5.22 µM) | –
13 | CCN1CCN(C(=O)N[C@@H](C(=O)N[C@@H]2C(=O)N3[C@@H]2SC(C)(C)[C@@H]3C(=O)O)c2ccccc2)C(=O)C1=O [PIPERACILLIN] | – | 256 (≈ 495 µM) | > 256 | 1 (≈ 1.93 µM) | 256 (≈ 495 µM) | > 256 | MIC (Serratia marcescens [13]): 128 µg/mL; MIC (Klebsiella pneumoniae [14]): > 256 µg/mL; MIC (Klebsiella pneumoniae [15]): > 256 µg/mL; MIC (Escherichia coli [16]): 256 µg/mL; MIC (Escherichia coli [17]): 1 µg/mL; MIC (Escherichia coli [18]): 256 µg/mL
14 | GENTAMICIN | > 256 | – | > 256 | 0.25 | 0.25 | – | MIC (Escherichia coli [19]): 64 µg/mL
